Where two headings read alike, the source gives them in different places. Marks after values point to notes of the source that are not given here.
Experiments:
A*0301 = target: T1, A*0301 (Homo sapiens, UniProt P04439); assay: Purified HLA class I peptide binding assay (HLA-A*03)
T1 construct: endogenous in cells; host or cells: GM3107

A*3101 = A*3101 (Homo sapiens, UniProt P04439, A270S/D185E/E176V/E277Q/F33T/G231S/G80R/H175R/I121M/I218V/I322F/K168Q/L300P/L318F/M331R/P217A/Q94H/R138Q/T323A/T345S/T97I/V358M); assay: Purified HLA class I peptide binding assay
A2-supertype alleles = assay type: binding, human; details: for Alleles bound: number of supertype alleles bound, 3 or more considered degenerate
human PBMC = assay type: cell-based; details: for Immunogenicity primary: primary cultures, responders/tested
[1] = tested on: A*0201/Kb transgenic mice; assay type: in vivo; details: responders/tested
CTL = assay type: cell-based
A*1101 = A*1101 (Homo sapiens, UniProt P04439, A114D/D185E/E176A/F33Y/L180Q/S129P/T187R); assay: Purified HLA class I peptide binding assay (HLA-A*11)
[2] = tested on: PBMC from patients acutely infected with HBV; assay: Patient: recall CTL responses in acutely infected HBV patients; assay type: cell-based, human; details: for Immunogenicity patients: acute patients, responders/tested, no literature mark
Method: Briefly, PBMC from patients acutely infected with HBV were cultured in the presence of 10 μg/ml of synthetic peptide. After seven days, the cultures were restimulated with peptide. The cultures were assayed for cytotoxic activity on day 14 using target cells pulsed with peptide.

[3] = tested on: PBMC from patients acutely infected with HBV; details: responders/tested, cited from earlier work
[4] = A2-supermotif cross-reactive peptides
[5] = A2 supermotif peptides, number of A2-supertype alleles bound
[6] = positive when responders noted in primary cultures, acute patients or transgenic mice
[7] = B7-supermotif cross-reactive peptides
[8] = A3-supermotif cross-reactive peptides

In the case of `C[C@H](N)C(=O)N[C@@H](Cc1ccccc1)C(=O)N[C@H](C(=O)N[C@@H](Cc1ccccc1)C(=O)N[C@@H](CO)C(=O)N1CCC[C@H]1C(=O)N[C@H](C(=O)N[C@@H](Cc1ccc(O)cc1)C(=O)N[C@@H](CCCCN)C(=O)O)[C@@H](C)O)[C@@H](C)O` [20.0130], the IC50 (A*0301) is reported as 42 nM and the IC50 (A*3101) is reported as 3100 nM.
For `CC(C)C[C@H](NC(=O)[C@@H](N)CC(C)C)C(=O)N[C@H](C(=O)N1CCC[C@H]1C(=O)N[C@@H](Cc1ccccc1)C(=O)N[C@H](C(=O)N[C@@H](CCC(N)=O)C(=O)N[C@@H](Cc1c[nH]c2ccccc12)C(=O)N[C@@H](Cc1ccccc1)C(=O)N[C@H](C(=O)O)C(C)C)C(C)C)C(C)C` [1069.06], the “Number of A2-supertype alleles bound” value (A2-supertype alleles; [4]) was 5, the “Number of A2-supertype alleles bound” value (A2-supertype alleles; [5]) was 5 and the Alleles bound (A2-supertype alleles) was 5. The “immunogenicity in primary human cultures (in words)” value (human PBMC) was “immunogenic”, the Immunogenicity primary (human PBMC; [4]) was 3/4 and the Immunogenicity primary (human PBMC) was 3/4. The Immunogenicity transgenic ([1]; A2 supermotif peptides) was 6/9, the Immunogenicity transgenic [1, 4] was 6/9 and the Immunogenicity overall (CTL; [4]) was “+”. For the same molecule, the Immunogenicity overall (CTL; [6]) was “+”.
Work on `CC[C@H](C)[C@H](NC(=O)[C@H](CC(C)C)NC(=O)[C@H](CS)NC(=O)[C@H](CC(C)C)NC(=O)[C@H](CC(C)C)NC(=O)[C@H](CC(C)C)NC(=O)[C@@H](NC(=O)[C@@H](N)Cc1ccccc1)[C@@H](C)CC)C(=O)N[C@@H](Cc1ccccc1)C(=O)N[C@@H](CC(C)C)C(=O)O` [Peptide 1.0895] yielded an Alleles bound (A2-supertype alleles) of 1.
Work on `CC(C)C[C@H](NC(=O)[C@H](CC(C)C)NC(=O)[C@@H]1CCCN1C(=O)CNC(=O)[C@H](CC(C)C)NC(=O)[C@@H](N)Cc1ccccc1)C(=O)N[C@H](C(=O)N[C@@H](CC(C)C)C(=O)N[C@@H](CCC(N)=O)C(=O)N[C@@H](C)C(=O)O)C(C)C` [Peptide 3.0205] yielded an Alleles bound (A2-supertype alleles) of 1.
In the case of `CC[C@H](C)[C@H](NC(=O)[C@H](Cc1c[nH]c2ccccc12)NC(=O)[C@@H](NC(=O)CNC(=O)[C@H](Cc1ccccc1)NC(=O)[C@H](CO)NC(=O)[C@@H](N)C(C)C)C(C)C)C(=O)N[C@@H](CCCNC(=N)N)C(=O)O` [Peptide 26.0023], the IC50 (A*0301) is reported as 2750 nM.
With `CC(C)C[C@H](NC(=O)[C@H](CS)NC(=O)[C@H](Cc1c[nH]cn1)NC(=O)[C@@H]1CCCN1C(=O)[C@H](Cc1ccccc1)NC(=O)[C@H](C)NC(=O)[C@@H](N)CCCNC(=N)N)C(=O)N[C@@H](C)C(=O)N[C@@H](Cc1ccccc1)C(=O)N[C@@H](CO)C(=O)N[C@@H](Cc1ccc(O)cc1)C(=O)O` [Peptide 26.0550] the IC50 (A*0301) was 92 nM and the IC50 (A*1101) was 15 nM.
For `CC[C@H](C)[C@H](NC(=O)[C@@H](N)Cc1c[nH]c2ccccc12)C(=O)N[C@@H](CC(C)C)C(=O)N[C@@H](CCCNC(=N)N)C(=O)NCC(=O)N[C@H](C(=O)N[C@@H](CO)C(=O)N[C@@H](Cc1ccccc1)C(=O)N[C@H](C(=O)O)C(C)C)[C@@H](C)O` [Peptide 927.24], the Alleles bound (A2-supertype alleles) was 1.
In the case of `CC(C)C[C@H](NC(=O)[C@H](CO)NC(=O)[C@H](CC(C)C)NC(=O)[C@@H](N)Cc1c[nH]c2ccccc12)C(=O)N[C@@H](CC(C)C)C(=O)N[C@H](C(=O)N1CCC[C@H]1C(=O)N[C@@H](Cc1ccccc1)C(=O)N[C@H](C(=O)O)C(C)C)C(C)C` [Peptide 1013.0102], the Alleles bound (A2-supertype alleles) is reported as 4.
With `CSCC[C@H](NC(=O)CNC(=O)[C@H](CCC(N)=O)NC(=O)[C@H](Cc1ccc(O)cc1)NC(=O)[C@H](CC(=O)O)NC(=O)[C@H](CC(C)C)NC(=O)[C@H](CC(C)C)NC(=O)[C@@H](N)C(C)C)C(=O)N[C@@H](CC(C)C)C(=O)O` [Peptide 1069.09] the Alleles bound (A2-supertype alleles) was 2.
Work on `CC[C@H](C)[C@H](NC(=O)CNC(=O)[C@H](C)NC(=O)[C@H](CCCCN)NC(=O)[C@H](Cc1c[nH]c2ccccc12)NC(=O)[C@H](CC(C)C)NC(=O)[C@@H](NC(=O)[C@H](Cc1c[nH]cn1)NC(=O)[C@H](CC(C)C)NC(=O)[C@@H](N)Cc1ccc(O)cc1)[C@@H](C)O)C(=O)O` [Peptide 1069.11] yielded an Alleles bound (A2-supertype alleles) of 2.
`CC(C)[C@H](N)C(=O)N[C@H](C(=O)N[C@@H](CC(=O)O)C(=O)N[C@@H](Cc1ccccc1)C(=O)N[C@@H](CO)C(=O)N[C@@H](CCC(N)=O)C(=O)N[C@@H](Cc1ccccc1)C(=O)N[C@@H](CO)C(=O)N[C@@H](CCCNC(=N)N)C(=O)O)C(C)C` [Peptide 1069.19] showed an IC50 (A*1101) of 80 nM.
Work on `CC[C@H](C)[C@H](NC(=O)[C@H](Cc1c[nH]cn1)NC(=O)[C@H](Cc1ccccc1)NC(=O)[C@H](Cc1c[nH]c2ccccc12)NC(=O)[C@H](CC(C)C)NC(=O)[C@@H](N)CC(C)C)C(=O)N[C@@H](CO)C(=O)N[C@@H](CS)C(=O)N[C@@H](CC(C)C)C(=O)O` [Peptide 1142.01] yielded an Alleles bound (A2-supertype alleles) of 2.
With `CC(C)C[C@H](NC(=O)[C@H](CS)NC(=O)[C@H](Cc1c[nH]cn1)NC(=O)[C@@H]1CCCN1C(=O)[C@@H](N)Cc1ccccc1)C(=O)N[C@@H](C)C(=O)N[C@@H](Cc1ccccc1)C(=O)N[C@@H](CO)C(=O)N[C@@H](Cc1ccc(O)cc1)C(=O)O` [Peptide 1145.08] the Immunogenicity primary (human PBMC; [7]) was 0/4, the Immunogenicity primary (human PBMC) was 0/4 and the Immunogenicity overall (CTL; [7]) was “−”. For the same molecule, the Immunogenicity overall (CTL; [6]) was “unk”.
With `CC[C@H](C)[C@H](NC(=O)CNC(=O)[C@H](C)NC(=O)[C@H](CCCCN)NC(=O)[C@H](Cc1c[nH]c2ccccc12)NC(=O)[C@H](CC(C)C)NC(=O)[C@@H](NC(=O)[C@@H](N)Cc1c[nH]cn1)[C@@H](C)O)C(=O)N[C@@H](CC(C)C)C(=O)N[C@@H](Cc1ccc(O)cc1)C(=O)N[C@@H](CCCCN)C(=O)O` [Peptide 1147.16] the IC50 (A*0301) was 20 nM.
For `CC(C)C[C@H](NC(=O)[C@@H](NC(=O)[C@@H](N)Cc1ccccc1)C(C)C)C(=O)NCC(=O)NCC(=O)N[C@@H](CS)C(=O)N[C@@H](CCCNC(=N)N)C(=O)N[C@@H](Cc1c[nH]cn1)C(=O)N[C@@H](CCCCN)C(=O)O` [peptide 1.0219], the IC50 (A*3101) was 1500 nM, the Immunogenicity primary (human PBMC; [8]) was 0/4 and the Immunogenicity overall (CTL; [8]) was “−”. For the same molecule, the “immunogenicity in at least one system (in words)” value (CTL; primary cultures, patient responses or HLA transgenic mice) was “With the exception of peptide 1.0219, all of the conserved cross-reactive peptides listed in Table insert table XXXI were found to be immunogenic”.
In the case of `CC(C)C[C@H](N)C(=O)N1CCC[C@H]1C(=O)N[C@@H](CO)C(=O)N[C@@H](CC(=O)O)C(=O)N[C@@H](Cc1ccccc1)C(=O)N[C@@H](Cc1ccccc1)C(=O)N1CCC[C@H]1C(=O)N[C@@H](CO)C(=O)N[C@H](C(=O)O)C(C)C` [peptide 988.05], the Immunogenicity patients [2] is reported as 2/16, the Immunogenicity overall (CTL; [7]) is reported as “+” and the Immunogenicity overall (CTL; [6]) is reported as “+”. The Immunogenicity patients ([3]; patients, Bertoni et al) was 2/16.
With `CC(C)C[C@H](NC(=O)CNC(=O)[C@@H](NC(=O)[C@H](Cc1ccccc1)NC(=O)[C@H](CC(N)=O)NC(=O)CNC(=O)[C@@H](NC(=O)[C@@H](N)CCCCN)C(C)C)[C@@H](C)O)C(=O)N[C@@H](Cc1ccc(O)cc1)C(=O)O` [peptide 1142.05] the “recognition in recall CTL responses from acute HBV patients (in words)” value [2] was “recognized in patients”, the Immunogenicity patients [2] was 2/22 and the Immunogenicity overall (CTL; non-crossreactive A3-supermotif peptides) was “+”. For the same molecule, the Immunogenicity overall (CTL; [6]) was “+” and the Immunogenicity patients ([3]; patients, Bertoni et al) was 2/22.
With “peptide 1013.01: A2-restricted peptide (WLSLLVPFV)” the “Number of A2-supertype alleles bound” value (A2-supertype alleles; [4]) was 4, the “Number of A2-supertype alleles bound” value (A2-supertype alleles; [5]) was 4 and the Immunogenicity primary (human PBMC; [4]) was 2/6. For the same molecule, the Immunogenicity primary (human PBMC) was 2/6, the Immunogenicity transgenic ([1]; A2 supermotif peptides) was 5/9 and the Immunogenicity transgenic [1, 4] was 5/9. For the same molecule, the Immunogenicity overall (CTL; [4]) was “+”, the Immunogenicity overall (CTL; [6]) was “+” and the Immunogenicity patients ([3]; acute patients, a-Bertoni et al) was 23/29^a. For the same molecule, the Immunogenicity patients ([3]; acute patients, from a-Bertoni et al, b-Rehermann et al., c-Nayersina et al.) was 23/29^a.

— patent publication US20070059799A1 (priority 1999, published 2007)
